{"source": "ChEMBL document CHEMBL5303573", "about": "“Mapping human microbiome drug metabolism by gut bacteria and their genes” (Nature, 2019)"}
{"test": "The drug is tested on Edwardsiella tarda strain: ATCC23685 for biotransformation. The drug concentrations were measured before and after a 12-h incubation by liquid-chromatography-coupled mass spectrometry (LC–MS)", "details": "2 µM"}
{"smiles": "CC(C)NCC(O)COc1ccc(COCCOC(C)C)cc1.CC(C)NCC(O)COc1ccc(COCCOC(C)C)cc1.O=C(O)/C=C/C(=O)O", "note": "(stereo unspecified) [BISOPROLOL FUMARATE]", "Bacterial Biotransformation": "Compound NOT metabolized"}
{"test": "The drug is tested on Alistipes indistinctus strain: DSM22520 for biotransformation. The drug concentrations were measured before and after a 12-h incubation by liquid-chromatography-coupled mass spectrometry (LC–MS)", "details": "2 µM"}
{"smiles": "CC(=O)SCC(Cc1ccccc1)C(=O)NCC(=O)OCc1ccccc1", "note": "(stereo unspecified) [RACECADOTRIL]", "Bacterial Biotransformation": "Compound metabolized"}
{"smiles": "CC(C)NCC(O)COc1ccc(COCCOC(C)C)cc1.CC(C)NCC(O)COc1ccc(COCCOC(C)C)cc1.O=C(O)/C=C/C(=O)O", "note": "(stereo unspecified) [BISOPROLOL FUMARATE]", "Bacterial Biotransformation": "Compound NOT metabolized"}
{"test": "The drug is tested on Anaerococcus hydrogenalis strain: DSM7454 for biotransformation. The drug concentrations were measured before and after a 12-h incubation by liquid-chromatography-coupled mass spectrometry (LC–MS)", "details": "2 µM"}
{"smiles": "CC(C)NCC(O)COc1ccc(COCCOC(C)C)cc1.CC(C)NCC(O)COc1ccc(COCCOC(C)C)cc1.O=C(O)/C=C/C(=O)O", "note": "(stereo unspecified) [BISOPROLOL FUMARATE]", "Bacterial Biotransformation": "Compound NOT metabolized"}
{"test": "The drug is tested on Bacteroides ovatus strain: ATCC8483 for biotransformation. The drug concentrations were measured before and after a 12-h incubation by liquid-chromatography-coupled mass spectrometry (LC–MS)", "details": "2 µM"}
{"smiles": "CC(=O)SCC(Cc1ccccc1)C(=O)NCC(=O)OCc1ccccc1", "note": "(stereo unspecified) [RACECADOTRIL]", "Bacterial Biotransformation": "Compound metabolized"}
{"smiles": "CC(C)NCC(O)COc1ccc(COCCOC(C)C)cc1.CC(C)NCC(O)COc1ccc(COCCOC(C)C)cc1.O=C(O)/C=C/C(=O)O", "note": "(stereo unspecified) [BISOPROLOL FUMARATE]", "Bacterial Biotransformation": "Compound NOT metabolized"}
{"test": "The drug is tested on Bacteroides pectinophilus strain: ATCC43243 for biotransformation. The drug concentrations were measured before and after a 12-h incubation by liquid-chromatography-coupled mass spectrometry (LC–MS)", "details": "2 µM"}
{"smiles": "CC(=O)SCC(Cc1ccccc1)C(=O)NCC(=O)OCc1ccccc1", "note": "(stereo unspecified) [RACECADOTRIL]", "Bacterial Biotransformation": "Compound metabolized"}
{"test": "The drug is tested on Ruminococcus torques strain: ATCC27756 for biotransformation. The drug concentrations were measured before and after a 12-h incubation by liquid-chromatography-coupled mass spectrometry (LC–MS)", "format": "ADME", "set-up": "dose 2 uM, timepoint 0 vs 12 hours", "details": "2 µM"}
{"smiles": "CC(C)NCC(O)COc1ccc(COCCOC(C)C)cc1.CC(C)NCC(O)COc1ccc(COCCOC(C)C)cc1.O=C(O)/C=C/C(=O)O", "note": "(stereo unspecified) [BISOPROLOL FUMARATE]", "Bacterial Biotransformation": "Compound NOT metabolized"}
{"test": "The drug is tested on Parabacteroides merdae strain: ATCC43184 for biotransformation. The drug concentrations were measured before and after a 12-h incubation by liquid-chromatography-coupled mass spectrometry (LC–MS)", "details": "2 µM"}
{"smiles": "CC(=O)SCC(Cc1ccccc1)C(=O)NCC(=O)OCc1ccccc1", "note": "(stereo unspecified) [RACECADOTRIL]", "Bacterial Biotransformation": "Compound metabolized"}
{"smiles": "CC(C)NCC(O)COc1ccc(COCCOC(C)C)cc1.CC(C)NCC(O)COc1ccc(COCCOC(C)C)cc1.O=C(O)/C=C/C(=O)O", "note": "(stereo unspecified) [BISOPROLOL FUMARATE]", "Bacterial Biotransformation": "Compound NOT metabolized"}
{"details": "bacteroides fragilis, 12 h, 2 µM", "description": "The drug is tested on Bacteroides fragilis strain: NCTC 9343 for biotransformation. The drug concentrations were measured before and after a 12-h incubation by liquid-chromatography-coupled mass spectrometry (LC–MS)"}
{"smiles": "CC(=O)SCC(Cc1ccccc1)C(=O)NCC(=O)OCc1ccccc1", "note": "(stereo unspecified) [RACECADOTRIL]", "Bacterial Biotransformation": "Compound metabolized"}
{"smiles": "CC(C)NCC(O)COc1ccc(COCCOC(C)C)cc1.CC(C)NCC(O)COc1ccc(COCCOC(C)C)cc1.O=C(O)/C=C/C(=O)O", "note": "(stereo unspecified) [BISOPROLOL FUMARATE]", "Bacterial Biotransformation": "Compound NOT metabolized"}
{"test": "The drug is tested on Bacteroides uniformis strain: ATCC8492 for biotransformation. The drug concentrations were measured before and after a 12-h incubation by liquid-chromatography-coupled mass spectrometry (LC–MS)", "details": "2 µM"}
{"smiles": "CC(=O)SCC(Cc1ccccc1)C(=O)NCC(=O)OCc1ccccc1", "note": "(stereo unspecified) [RACECADOTRIL]", "Bacterial Biotransformation": "Compound metabolized"}
{"test": "The drug is tested on Clostridium ramosum strain: DSM1402 for biotransformation. The drug concentrations were measured before and after a 12-h incubation by liquid-chromatography-coupled mass spectrometry (LC–MS)", "details": "thomasclavelia ramosa, 2 µM"}
{"smiles": "CC(=O)SCC(Cc1ccccc1)C(=O)NCC(=O)OCc1ccccc1", "note": "(stereo unspecified) [RACECADOTRIL]", "Bacterial Biotransformation": "Compound NOT metabolized"}
{"smiles": "CC(C)NCC(O)COc1ccc(COCCOC(C)C)cc1.CC(C)NCC(O)COc1ccc(COCCOC(C)C)cc1.O=C(O)/C=C/C(=O)O", "note": "(stereo unspecified) [BISOPROLOL FUMARATE]", "Bacterial Biotransformation": "Compound NOT metabolized"}
{"test": "The drug is tested on Enterococcus faecalis strain: V583 for biotransformation. The drug concentrations were measured before and after a 12-h incubation by liquid-chromatography-coupled mass spectrometry (LC–MS)", "details": "2 µM"}
{"smiles": "CC(C)NCC(O)COc1ccc(COCCOC(C)C)cc1.CC(C)NCC(O)COc1ccc(COCCOC(C)C)cc1.O=C(O)/C=C/C(=O)O", "note": "(stereo unspecified) [BISOPROLOL FUMARATE]", "Bacterial Biotransformation": "Compound NOT metabolized"}
{"details": "parabacteroides johnsonii, 12 h, 2 µM", "description": "The drug is tested on Parabacteroides johnsonii strain: DSM18315 for biotransformation. The drug concentrations were measured before and after a 12-h incubation by liquid-chromatography-coupled mass spectrometry (LC–MS)"}
{"smiles": "CC(=O)SCC(Cc1ccccc1)C(=O)NCC(=O)OCc1ccccc1", "note": "(stereo unspecified) [RACECADOTRIL]", "Bacterial Biotransformation": "Compound metabolized"}
{"smiles": "CC(C)NCC(O)COc1ccc(COCCOC(C)C)cc1.CC(C)NCC(O)COc1ccc(COCCOC(C)C)cc1.O=C(O)/C=C/C(=O)O", "note": "(stereo unspecified) [BISOPROLOL FUMARATE]", "Bacterial Biotransformation": "Compound NOT metabolized"}
{"test": "The drug is tested on Providencia stuartii strain: ATCC25827 for biotransformation. The drug concentrations were measured before and after a 12-h incubation by liquid-chromatography-coupled mass spectrometry (LC–MS)", "details": "2 µM"}
{"smiles": "CC(=O)SCC(Cc1ccccc1)C(=O)NCC(=O)OCc1ccccc1", "note": "(stereo unspecified) [RACECADOTRIL]", "Bacterial Biotransformation": "Compound NOT metabolized"}
{"smiles": "CC(C)NCC(O)COc1ccc(COCCOC(C)C)cc1.CC(C)NCC(O)COc1ccc(COCCOC(C)C)cc1.O=C(O)/C=C/C(=O)O", "note": "(stereo unspecified) [BISOPROLOL FUMARATE]", "Bacterial Biotransformation": "Compound NOT metabolized"}
{"test": "The drug is tested on Eubacterium rectale strain: ATCC33656 for biotransformation. The drug concentrations were measured before and after a 12-h incubation by liquid-chromatography-coupled mass spectrometry (LC–MS)", "details": "agathobacter rectalis, 2 µM"}
{"smiles": "CC(=O)SCC(Cc1ccccc1)C(=O)NCC(=O)OCc1ccccc1", "note": "(stereo unspecified) [RACECADOTRIL]", "Bacterial Biotransformation": "Compound NOT metabolized"}
{"smiles": "CC(C)NCC(O)COc1ccc(COCCOC(C)C)cc1.CC(C)NCC(O)COc1ccc(COCCOC(C)C)cc1.O=C(O)/C=C/C(=O)O", "note": "(stereo unspecified) [BISOPROLOL FUMARATE]", "Bacterial Biotransformation": "Compound NOT metabolized"}
{"test": "The drug is tested on Anaerotruncus colihominis strain: DSM17241 for biotransformation. The drug concentrations were measured before and after a 12-h incubation by liquid-chromatography-coupled mass spectrometry (LC–MS)", "details": "2 µM"}
{"smiles": "CC(C)NCC(O)COc1ccc(COCCOC(C)C)cc1.CC(C)NCC(O)COc1ccc(COCCOC(C)C)cc1.O=C(O)/C=C/C(=O)O", "note": "(stereo unspecified) [BISOPROLOL FUMARATE]", "Bacterial Biotransformation": "Compound NOT metabolized"}
{"test": "The drug is tested on Ruminococcus gnavus strain: ATCC29149 for biotransformation. The drug concentrations were measured before and after a 12-h incubation by liquid-chromatography-coupled mass spectrometry (LC–MS)", "details": "mediterraneibacter gnavus, 2 µM"}
{"smiles": "CC(=O)SCC(Cc1ccccc1)C(=O)NCC(=O)OCc1ccccc1", "note": "(stereo unspecified) [RACECADOTRIL]", "Bacterial Biotransformation": "Compound NOT metabolized"}
{"smiles": "CC(C)NCC(O)COc1ccc(COCCOC(C)C)cc1.CC(C)NCC(O)COc1ccc(COCCOC(C)C)cc1.O=C(O)/C=C/C(=O)O", "note": "(stereo unspecified) [BISOPROLOL FUMARATE]", "Bacterial Biotransformation": "Compound NOT metabolized"}
{"test": "The drug is tested on Bacteroides coprophilus strain: DSM18228 for biotransformation. The drug concentrations were measured before and after a 12-h incubation by liquid-chromatography-coupled mass spectrometry (LC–MS)", "details": "2 µM"}
{"smiles": "CC(=O)SCC(Cc1ccccc1)C(=O)NCC(=O)OCc1ccccc1", "note": "(stereo unspecified) [RACECADOTRIL]", "Bacterial Biotransformation": "Compound metabolized"}
{"smiles": "CC(C)NCC(O)COc1ccc(COCCOC(C)C)cc1.CC(C)NCC(O)COc1ccc(COCCOC(C)C)cc1.O=C(O)/C=C/C(=O)O", "note": "(stereo unspecified) [BISOPROLOL FUMARATE]", "Bacterial Biotransformation": "Compound NOT metabolized"}
{"details": "bifidobacterium adolescentis, 12 h, 2 µM", "description": "The drug is tested on Bifidobacterium adolescentis strain: ATCC 15703 for biotransformation. The drug concentrations were measured before and after a 12-h incubation by liquid-chromatography-coupled mass spectrometry (LC–MS)"}
{"smiles": "CC(=O)SCC(Cc1ccccc1)C(=O)NCC(=O)OCc1ccccc1", "note": "(stereo unspecified) [RACECADOTRIL]", "Bacterial Biotransformation": "Compound metabolized"}
{"smiles": "CC(C)NCC(O)COc1ccc(COCCOC(C)C)cc1.CC(C)NCC(O)COc1ccc(COCCOC(C)C)cc1.O=C(O)/C=C/C(=O)O", "note": "(stereo unspecified) [BISOPROLOL FUMARATE]", "Bacterial Biotransformation": "Compound NOT metabolized"}
{"test": "The drug is tested on Bacteroides dorei strain: DSM17855 for biotransformation. The drug concentrations were measured before and after a 12-h incubation by liquid-chromatography-coupled mass spectrometry (LC–MS)", "details": "phocaeicola dorei, 2 µM"}
{"smiles": "CC(=O)SCC(Cc1ccccc1)C(=O)NCC(=O)OCc1ccccc1", "note": "(stereo unspecified) [RACECADOTRIL]", "Bacterial Biotransformation": "Compound metabolized"}
{"smiles": "CC(C)NCC(O)COc1ccc(COCCOC(C)C)cc1.CC(C)NCC(O)COc1ccc(COCCOC(C)C)cc1.O=C(O)/C=C/C(=O)O", "note": "(stereo unspecified) [BISOPROLOL FUMARATE]", "Bacterial Biotransformation": "Compound NOT metabolized"}
